Results reported in patent US10745384B2, “Indazole derivatives as αv integrin antagonists” (BRISTOL-MYERS SQUIBB COMPANY, priority 2016, dated 2020).
Where a name gives a salt, the structure may show the parent alone.

Key:
human αVβ5 = human αVβ5 (Homo sapiens, UniProt P06756+P18084); test: human αVβ5 HTRF binding assay
Procedure: (§1) All binding assays used the HTRF (homogeneous time resolved fluorescence) technology from Cisbio International, therefore all assays are described as HTRF binding assays. The assay results for the Examples are listed above together with the characterization data. The HTRF binding assays are established for the following integrins: human αVβ6, human αVβ1, human αVβ3, human αVβ5, and human αVβ8. All assays used the following assay buffer: 20 mM Tris, pH 7.4, 1 mM MgCl2, 1 mM MnCl2, 0.01% Tween 20, and 0.01% BSA. Alternatively, a SPA-based assay was used for evaluation of receptor binding.
(§2) The following describes the components and a representative procedure for the human αVβ6 HTRF binding assay: Recombinant human αVβ6 Integrin (R & D systems, 3817-AV) was biotinylated. Biotinylated human αVβ6 Integrin was added to assay vessel at a final concentration of 1.25 nM. FITC-conjugated fibronectin (Cytoskeleton, FNR02) was then added at the final concentration of 5 nM. The mixture was centrifuged at 600 rpm for three minutes using Thermo Fisher Heraeus Multifuge X3 centrifuge and then incubated at room temperature for an hour. Streptavidin Terbium (Cisbio international 610STLB) was then added at the final concentration of 0.625 nM. The resulting mixture was centrifuged at 600 rpm for three minutes using Thermo Fisher Heraeus Multifuge X3 centrifuge and then incubated at room temperature overnight in dark before reading HTRF signals. […]

human αVβ3 = human αVβ3 (Homo sapiens, UniProt P05106+P06756); test: human αVβ3 HTRF binding assay
human αVβ3, sequence (P06756 31-992 limits assumed): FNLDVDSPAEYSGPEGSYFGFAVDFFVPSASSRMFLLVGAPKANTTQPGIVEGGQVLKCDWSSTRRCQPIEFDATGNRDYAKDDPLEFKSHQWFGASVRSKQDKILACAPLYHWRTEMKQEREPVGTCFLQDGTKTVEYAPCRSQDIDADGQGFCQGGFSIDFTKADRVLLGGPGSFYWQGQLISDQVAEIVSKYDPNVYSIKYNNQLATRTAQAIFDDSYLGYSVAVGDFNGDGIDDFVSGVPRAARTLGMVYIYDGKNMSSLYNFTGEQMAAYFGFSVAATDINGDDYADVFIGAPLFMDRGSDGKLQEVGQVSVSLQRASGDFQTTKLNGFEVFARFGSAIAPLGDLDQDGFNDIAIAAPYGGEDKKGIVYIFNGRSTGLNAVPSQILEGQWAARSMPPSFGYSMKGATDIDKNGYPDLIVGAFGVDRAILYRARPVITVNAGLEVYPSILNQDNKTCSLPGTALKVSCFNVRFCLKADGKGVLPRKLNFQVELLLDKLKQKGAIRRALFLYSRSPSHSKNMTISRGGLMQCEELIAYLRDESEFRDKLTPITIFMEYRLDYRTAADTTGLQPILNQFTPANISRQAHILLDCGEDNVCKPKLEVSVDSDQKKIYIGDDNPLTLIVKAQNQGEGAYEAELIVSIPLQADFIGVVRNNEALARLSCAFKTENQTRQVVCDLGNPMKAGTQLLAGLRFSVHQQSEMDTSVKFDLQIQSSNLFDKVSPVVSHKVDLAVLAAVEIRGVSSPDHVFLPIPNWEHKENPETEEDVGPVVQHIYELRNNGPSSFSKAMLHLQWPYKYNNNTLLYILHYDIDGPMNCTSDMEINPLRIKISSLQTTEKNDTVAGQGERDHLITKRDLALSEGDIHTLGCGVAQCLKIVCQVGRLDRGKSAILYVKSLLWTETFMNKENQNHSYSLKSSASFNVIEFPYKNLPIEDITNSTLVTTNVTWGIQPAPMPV
human αVβ3, sequence (P05106 27-718 limits assumed): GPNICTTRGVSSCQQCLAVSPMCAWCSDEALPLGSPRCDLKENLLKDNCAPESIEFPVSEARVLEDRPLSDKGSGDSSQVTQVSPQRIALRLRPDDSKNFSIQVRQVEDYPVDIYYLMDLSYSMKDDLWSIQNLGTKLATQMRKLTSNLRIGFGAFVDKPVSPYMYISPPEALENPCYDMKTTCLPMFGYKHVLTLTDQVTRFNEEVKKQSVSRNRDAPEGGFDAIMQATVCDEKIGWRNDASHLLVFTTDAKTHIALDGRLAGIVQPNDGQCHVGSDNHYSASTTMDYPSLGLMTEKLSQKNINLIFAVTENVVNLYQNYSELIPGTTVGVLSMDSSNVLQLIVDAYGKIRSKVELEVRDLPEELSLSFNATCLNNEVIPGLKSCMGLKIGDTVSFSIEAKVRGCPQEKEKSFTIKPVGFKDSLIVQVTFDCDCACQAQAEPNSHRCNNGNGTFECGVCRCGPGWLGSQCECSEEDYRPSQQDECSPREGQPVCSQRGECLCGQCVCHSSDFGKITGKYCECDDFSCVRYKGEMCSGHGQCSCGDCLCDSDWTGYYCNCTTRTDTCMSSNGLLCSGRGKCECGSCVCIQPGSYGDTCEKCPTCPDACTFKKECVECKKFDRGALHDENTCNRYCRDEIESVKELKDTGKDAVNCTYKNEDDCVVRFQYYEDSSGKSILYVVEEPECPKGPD
Procedure: as §1, §2

human αVβ6 = target: T1, human αVβ6 (Homo sapiens, UniProt P06756+P18564); test: human αVβ6 HTRF binding assay; conditions: recombinant human αVβ6 integrin, FITC-conjugated fibronectin
T1 construct: purchased R & D systems 3817-AV
T1 sequence (P06756 31-992 limits assumed): as the sequence (P06756 31-992 limits assumed) above
T1 sequence (P18564 22-707 limits assumed): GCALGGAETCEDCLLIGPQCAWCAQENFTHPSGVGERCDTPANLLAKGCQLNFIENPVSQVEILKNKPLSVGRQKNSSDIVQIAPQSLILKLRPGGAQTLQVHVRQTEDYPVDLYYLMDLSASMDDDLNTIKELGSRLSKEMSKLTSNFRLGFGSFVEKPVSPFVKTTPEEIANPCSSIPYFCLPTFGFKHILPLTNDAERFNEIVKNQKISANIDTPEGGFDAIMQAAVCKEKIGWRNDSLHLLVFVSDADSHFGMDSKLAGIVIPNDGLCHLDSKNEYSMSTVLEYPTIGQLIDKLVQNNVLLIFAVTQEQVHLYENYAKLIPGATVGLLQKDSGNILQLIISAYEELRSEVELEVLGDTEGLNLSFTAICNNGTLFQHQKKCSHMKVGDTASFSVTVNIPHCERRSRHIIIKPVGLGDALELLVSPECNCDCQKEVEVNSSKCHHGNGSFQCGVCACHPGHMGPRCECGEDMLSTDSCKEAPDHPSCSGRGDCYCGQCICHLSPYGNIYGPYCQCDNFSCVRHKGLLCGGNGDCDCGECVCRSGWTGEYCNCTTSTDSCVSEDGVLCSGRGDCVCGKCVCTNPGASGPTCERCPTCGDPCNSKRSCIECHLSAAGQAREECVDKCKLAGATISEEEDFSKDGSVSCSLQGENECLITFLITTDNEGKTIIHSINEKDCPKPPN
Outline: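 HTRF binding in 20 mM Tris pH 7.4 with 1 mM MgCl2, 1 mM MnCl2, 0.01% Tween 20 and 0.01% BSA. For αVβ6, biotinylated integrin (1.25 nM) and FITC-fibronectin (5 nM) were incubated 1 h at RT, then streptavidin-terbium (0.625 nM) was added overnight in the dark. An SPA-based fibronectin binding format was an alternative.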

human αVβ1 = human αVβ1 (Homo sapiens, UniProt P05556+P06756); test: human αVβ1 HTRF binding assay
human αVβ1, sequence (P06756 31-992 limits assumed): as the sequence (P06756 31-992 limits assumed) above
human αVβ1, sequence (P05556 21-728 limits assumed): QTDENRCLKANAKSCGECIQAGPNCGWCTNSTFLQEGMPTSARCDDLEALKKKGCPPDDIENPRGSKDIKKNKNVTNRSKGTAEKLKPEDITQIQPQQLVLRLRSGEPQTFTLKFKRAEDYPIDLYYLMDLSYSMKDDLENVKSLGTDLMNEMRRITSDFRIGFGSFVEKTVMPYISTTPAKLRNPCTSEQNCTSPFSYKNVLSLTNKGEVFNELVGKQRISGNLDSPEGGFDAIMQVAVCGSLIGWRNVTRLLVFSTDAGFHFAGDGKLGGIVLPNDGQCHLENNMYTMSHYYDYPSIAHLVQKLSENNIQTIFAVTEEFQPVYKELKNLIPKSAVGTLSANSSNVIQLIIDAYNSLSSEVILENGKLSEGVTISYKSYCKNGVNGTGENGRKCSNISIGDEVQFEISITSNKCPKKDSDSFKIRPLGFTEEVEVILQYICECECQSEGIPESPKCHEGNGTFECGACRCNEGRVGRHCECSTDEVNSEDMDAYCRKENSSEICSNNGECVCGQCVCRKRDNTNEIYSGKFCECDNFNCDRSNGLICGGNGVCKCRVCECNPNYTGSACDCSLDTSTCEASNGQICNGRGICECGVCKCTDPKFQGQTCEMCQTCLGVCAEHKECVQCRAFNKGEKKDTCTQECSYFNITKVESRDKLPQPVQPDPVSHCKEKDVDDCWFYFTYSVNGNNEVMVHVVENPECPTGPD
Procedure: as §1
The following describes the components and a representative procedure for the human αVβ6 HTRF binding assay: Recombinant human αVβ6 Integrin (R & D systems, 3817-AV) was biotinylated. Biotinylated human αVβ6 Integrin was added to assay vessel at a final concentration of 1.25 nM. FITC-conjugated fibronectin (Cytoskeleton, FNR02) was then added at the final concentration of 5 nM. The mixture was centrifuged at 600 rpm for three minutes using Thermo Fisher Heraeus Multifuge X3 centrifuge and then incubated at room temperature for an hour. Streptavidin Terbium (Cisbio international 610STLB) was then added at the final concentration of 0.625 nM. The resulting mixture was centrifuged at 600 rpm for three minutes using Thermo Fisher Heraeus Multifuge X3 centrifuge and then incubated at room temperature overnight in dark before reading HTRF signals.
The SPA-based assay was carried out according to the protocol and procedures similar to the ones described in the following reference with appropriate modifications to agents and ligands which are readily understood by one skilled in the art: Pachter J A, Zhang R, Mayer-Ezell R., “Scintillation proximity assay to measure binding of soluble fibronectin to antibody-captured αVβ1 integrin” Anal Biochem. 1995 Sep. 1; 230(1):101-7.

human αVβ8 = human αVβ8 (Homo sapiens, UniProt P06756+P26012); test: human αVβ8 HTRF binding assay
human αVβ8, sequence (P06756 31-992 limits assumed): as the sequence (P06756 31-992 limits assumed) above
human αVβ8, sequence (P26012 43-684 limits assumed): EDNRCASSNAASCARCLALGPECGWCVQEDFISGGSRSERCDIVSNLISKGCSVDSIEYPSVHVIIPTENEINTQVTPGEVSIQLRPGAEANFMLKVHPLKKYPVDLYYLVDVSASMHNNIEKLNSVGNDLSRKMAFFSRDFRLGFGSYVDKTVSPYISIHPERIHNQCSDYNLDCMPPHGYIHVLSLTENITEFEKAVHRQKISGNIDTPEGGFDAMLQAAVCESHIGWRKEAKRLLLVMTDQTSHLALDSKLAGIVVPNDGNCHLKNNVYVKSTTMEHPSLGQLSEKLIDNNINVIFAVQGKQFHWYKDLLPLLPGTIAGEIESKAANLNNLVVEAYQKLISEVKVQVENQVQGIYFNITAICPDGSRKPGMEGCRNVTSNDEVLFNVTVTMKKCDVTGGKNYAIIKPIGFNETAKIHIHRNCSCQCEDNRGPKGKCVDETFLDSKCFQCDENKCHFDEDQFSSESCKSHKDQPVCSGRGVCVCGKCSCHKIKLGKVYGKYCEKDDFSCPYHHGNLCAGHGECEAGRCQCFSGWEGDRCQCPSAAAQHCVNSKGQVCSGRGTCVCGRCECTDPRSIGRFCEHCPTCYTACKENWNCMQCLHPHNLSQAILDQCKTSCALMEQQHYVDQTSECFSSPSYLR
Procedure: as §1, §2

human αVβ5, sequence (P06756 31-992 limits assumed): as the sequence (P06756 31-992 limits assumed) above
human αVβ5, sequence (P18084 24-719 limits assumed): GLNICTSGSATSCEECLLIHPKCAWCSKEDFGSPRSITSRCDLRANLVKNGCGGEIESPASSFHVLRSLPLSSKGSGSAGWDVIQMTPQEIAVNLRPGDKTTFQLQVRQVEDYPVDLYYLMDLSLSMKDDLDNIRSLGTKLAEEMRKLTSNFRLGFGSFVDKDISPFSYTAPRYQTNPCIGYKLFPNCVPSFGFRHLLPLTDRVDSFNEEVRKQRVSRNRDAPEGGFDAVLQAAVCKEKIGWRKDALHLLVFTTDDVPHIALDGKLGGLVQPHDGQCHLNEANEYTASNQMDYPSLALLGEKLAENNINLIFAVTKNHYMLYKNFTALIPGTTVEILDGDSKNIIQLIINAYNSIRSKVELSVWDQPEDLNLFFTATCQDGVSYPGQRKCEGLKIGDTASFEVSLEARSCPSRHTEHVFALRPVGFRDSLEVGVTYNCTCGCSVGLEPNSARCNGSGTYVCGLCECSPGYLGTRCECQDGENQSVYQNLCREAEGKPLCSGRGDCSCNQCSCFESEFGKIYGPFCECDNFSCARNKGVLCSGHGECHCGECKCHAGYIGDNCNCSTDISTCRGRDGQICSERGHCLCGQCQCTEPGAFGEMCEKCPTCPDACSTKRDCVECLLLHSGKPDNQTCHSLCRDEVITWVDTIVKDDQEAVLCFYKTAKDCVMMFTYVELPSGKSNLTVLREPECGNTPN

| SMILES | IC50 (human αVβ5) | IC50 (human αVβ3) | IC50 (human αVβ6) | IC50 (human αVβ1) | IC50 (human αVβ8) |
| --- | --- | --- | --- | --- | --- |
| COc1ccc([C@H](CC(=O)O)n2cc3ccc(CCC4CCc5cccnc5N4)cc3n2)cn1 (stereo partly drawn) [Example 72, (3S)-3-(6-Methoxypyridin-3-yl)-3-(6-(2-(1,2,3,4-tetrahydro-1,8-naphthyridin-2-yl)ethyl)-2H-indazol-2-yl)propanoic acid] | 1.5 nM | 4.4 nM | 8.2 nM | 740 nM | 3200 nM |
| O=C(O)CC(c1cnc2ccccc2n1)n1ncc2cc(OCCc3ccc4c(n3)NCCC4)ccc21 (racemic) [Example 15, (±)-3-(Quinoxalin-2-yl)-3-(5-(2-(5,6,7,8-tetrahydro-1,8-naphthyridin-2-yl)ethoxy)-1H-indazol-1-yl)propanoic acid] | 0.31 nM | 2.7 nM | 6 nM | 270 nM | 1500 nM |
| O=C(O)CC(c1cncc(C2OCCO2)c1)n1ncc2cc(OCCc3ccc4c(n3)NCCC4)ccc21 (stereo not shown) [Example 104, 3-(5-(1,3-Dioxolan-2-yl)pyridin-3-yl)-3(5-(2-(5,6,7,8-tetrahydro-1,8-naphthyridin-2-yl)ethoxy)-1H-indazol-1yl)propanoic acid] | 0.28 nM | 2.61 nM | 12 nM | 30 nM | 1800 nM |
| O=C(O)C[C@@H](c1cnc2ccccc2n1)n1ncc2cc(OCCc3ccc4c(n3)NCCC4)ccc21 [Example 17, (S)-3-(quinoxalin-2-yl)-3-(5-(2-(5,6,7,8-tetrahydro-1,8-naphthyridin-2-yl)ethoxy)-1H-indazol-1-yl)propanoic acid] | 0.25 nM | 2.1 nM | 4.2 nM | 190 nM | 1900 nM |
| COc1ncc(C(CC(=O)O)n2ncc3cc(OCCc4ccc5c(n4)NCCC5)ccc32)cn1 (stereo not shown) [Example 92, 3-(2-Methoxypyrimidin-5-yl)-3-(5-(2-(5,6,7,8-tetrahydro-1,8-naphthyridin-2-yl)ethoxy)-1H-indazol-1-yl)propanoic acid, TFA] | 0.39 nM | 2.4 nM | 31 nM | 210 nM | 5000 nM |
| O=C(O)CC(c1cncc(-c2cnco2)c1)n1ncc2cc(OCCc3ccc4c(n3)NCCC4)ccc21 (stereo not shown) [Example 121, 3-(5-(Oxazol-5-yl)pyridin-3-yl)-3-(5-(2-(5,6,7,8-tetrahydro-1,8-naphthyridin-2-yl)ethoxy)-1H-indazol-1-yl)propanoic acid] | 0.46 nM | 3.1 nM | 8.8 nM | 71 nM | 2600 nM |
| O=C(O)C[C@@H](c1cnc2ccccc2c1)n1cc2ccc(CCC3CCc4cccnc4N3)cc2n1 (stereo partly drawn) [Example 83, (3S)-3-(Quinolin-3-yl)-3-(6-(2-(1,2,3,4-tetrahydro-1,8-naphthyridin-2-yl)ethyl)-2H-indazol-2-yl)propanoic acid] | 2.2 nM | 4.1 nM | 4.7 nM | 360 nM | 5000 nM |
| O=C(O)CC(c1cnc2c(c1)OCCN2)n1ncc2cc(OCCc3ccc4c(n3)NCCC4)ccc21 (stereo not shown) [Example 97, TFA] | 0.59 nM | 2.6 nM | 10 nM | 100 nM | 5000 nM |
